Laboratory results published in ChEMBL document CHEMBL5365537, “Development of LM-41 and AF-2112, two flufenamic acid-derived TEAD inhibitors obtained through the replacement of the trifluoromethyl group by aryl rings” (Bioorg Med Chem Lett, 2023).
Calls of active or inactive are those of the source. No cut-off for these calls is given here.

Columns and labels:
[1] = target: Transcriptional enhancer factor TEF-3 (Homo sapiens) (UniProt Q15561); assay: Binding affinity to TEAD4 (unknown origin) assessed as change in aggregation temperature at 25 uM by DSLS thermal shift assay
Transcriptional enhancer factor TEF-3 (Homo sapiens), sequence (Q15561 whole entry): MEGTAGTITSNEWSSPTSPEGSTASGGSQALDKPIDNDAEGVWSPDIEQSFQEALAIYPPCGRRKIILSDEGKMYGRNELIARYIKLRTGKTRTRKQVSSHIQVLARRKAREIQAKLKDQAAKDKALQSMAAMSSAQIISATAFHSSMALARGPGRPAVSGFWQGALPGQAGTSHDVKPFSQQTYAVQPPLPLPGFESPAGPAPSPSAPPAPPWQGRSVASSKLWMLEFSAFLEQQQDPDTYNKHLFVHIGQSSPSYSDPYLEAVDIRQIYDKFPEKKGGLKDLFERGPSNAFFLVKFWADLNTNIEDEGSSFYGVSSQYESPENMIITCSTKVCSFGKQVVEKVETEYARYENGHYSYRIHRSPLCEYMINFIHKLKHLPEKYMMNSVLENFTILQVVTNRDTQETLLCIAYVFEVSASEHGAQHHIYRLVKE

[2] = target: Transcriptional enhancer factor TEF-3 (Homo sapiens) (UniProt Q15561); assay: Inhibition of TEAD4 in human MDA-MB-231 cells assessed as decrease in TEAD-dependent NF2 gene expression at 10 uM incubated for 24 hrs by RT-qPCR analysis; assay type: cell-based
[3] = target: Transcriptional enhancer factor TEF-3 (Homo sapiens) (UniProt Q15561); assay: Inhibition of TEAD4 in human MDA-MB-231 cells assessed as decrease in TEAD-dependent Axl gene expression at 10 uM incubated for 24 hrs by RT-qPCR analysis; assay type: cell-based
[4] = target: Transcriptional enhancer factor TEF-3 (Homo sapiens) (UniProt Q15561); assay: Inhibition of TEAD4 in human MDA-MB-231 cells assessed as decrease in TEAD-dependent Cyr61 gene expression at 10 uM incubated for 24 hrs by RT-qPCR analysis; assay type: cell-based
[5] = target: Transcriptional enhancer factor TEF-3 (Homo sapiens) (UniProt Q15561); assay: Inhibition of TEAD4 in human MDA-MB-231 cells assessed as decrease in TEAD-dependent CTGF gene expression at 10 uM incubated for 24 hrs by RT-qPCR analysis; assay type: cell-based
[6] = target: Transcriptional enhancer factor TEF-3 (Homo sapiens) (UniProt Q15561); assay: Binding affinity to TEAD4 (unknown origin) assessed as change in aggregation temperature at 25 uM by DSF assay
[7] = system: MDA-MB-231; assay: Antimigratory activity against human MDA-MB-231 cells assessed as reduction in cell migration at 10 uM incubated for 48 hrs; assay type: functional, cell-based

Compound: COc1cccc(-c2cccc(Nc3cc(F)ccc3C(=O)O)c2)c1
- deltaT [1]: 3.5 °C

Compound: O=C(O)c1ccc(F)cc1Nc1cccc(Cc2ccccc2)c1
- deltaT [1]: 3 °C

Compound: Cc1ccc(Nc2cc(F)ccc2C(=O)O)cc1
- deltaT [1]: 4 °C

Compound: O=C(O)c1ccc(F)cc1Nc1cccc(-c2cccc(Br)c2)c1
- deltaT [1]: 3.9 °C

Compound: COc1ccccc1-c1cccc(Nc2cc(F)ccc2C(=O)O)c1
- deltaT [1]: 1.3 °C

Compound: O=C(O)c1ccc(F)cc1Nc1cccc(-c2cccnc2)c1
- deltaT [1]: 0 °C

Compound: O=C(O)c1ccccc1Nc1cccc(OCc2ccccc2)c1
- deltaT [1]: 2.9 °C

Compound: O=C(O)c1ccc(F)cc1Nc1ccccc1-c1cccs1
- inhibition [2]: inactive
- inhibition [3]: inactive
- deltaT [1]: 5.5 °C
- inhibition [4]: inactive
- inhibition [5]: inactive

Compound: Cc1ccc(C(=O)O)c(Nc2cccc(OCc3ccccc3)c2)c1
- deltaT [1]: 2.3 °C

Compound: Cc1ccccc1Nc1cc(F)ccc1C(=O)O
- deltaT [1]: 2.2 °C

Compound: O=C(O)c1ccc(F)cc1Nc1cccc(-c2ccccn2)c1
- deltaT [1]: 1 °C

Compound: COc1ccc(-c2cccc(Nc3cc(F)ccc3C(=O)O)c2)cc1
- deltaT [1]: 2.7 °C

Compound: O=C(O)c1cccnc1Nc1cccc(-c2cccc(C(F)(F)F)c2)c1
- deltaT [1]: 4.8 °C

Compound: O=C(O)c1ccc(F)cc1Nc1cccc(-c2cccc(C(F)(F)F)c2)c1
- deltaT [1]: 6.2 °C

Compound: O=C(O)c1ccc(F)cc1Nc1cccc(-c2ccc(C(F)(F)F)cc2)c1
- deltaT [1]: 4.5 °C

Compound: O=C(O)c1ccc(F)cc1Nc1cccc(-c2cccc(Cl)c2)c1
- deltaT [1]: 3.1 °C

Compound: O=C(O)c1cccnc1Nc1cccc(C(F)(F)F)c1
- inhibition [2]: inactive
- inhibition [3]: inactive
- inhibition [4]: inactive
- inhibition [5]: inactive

Compound: O=C(O)c1ccc(F)cc1Nc1cccc(COc2ccccc2)c1
- deltaT [1]: 3 °C

Compound: Cc1cccc(Nc2cc(F)ccc2C(=O)O)c1
- deltaT [1]: 4.7 °C

Compound: O=C(O)c1ccc(F)cc1Nc1cccc(OCc2ccccc2)c1
- inhibition [2]: Active
- inhibition [3]: inactive
- deltaT [1]: 3.8 °C
- inhibition [4]: inactive
- inhibition [5]: Active

Compound: O=C(O)c1ccc(F)cc1Nc1cccc(-c2ccccc2C(F)(F)F)c1
- deltaT [1]: 2.5 °C

Compound: O=C(O)c1cccnc1Nc1cccc(OCCc2ccccc2)c1
- inhibition [2]: inactive
- inhibition [3]: inactive
- deltaT [6]: 3.6 °C
- inhibition [4]: inactive
- inhibition [5]: inactive

Compound: O=C(O)c1ccc(F)cc1Nc1cccc(-c2cccc(F)c2)c1
- deltaT [1]: 3.9 °C

Compound: O=C(O)c1ccc(F)cc1Nc1cccc(OCCc2ccccc2)c1
- inhibition [2]: Active
- inhibition [3]: Active
- deltaT [1]: 5.1 °C
- inhibition [4]: Active
- Activity [7]: Active
- inhibition [5]: Active

Compound: O=C(O)c1ccc(F)cc1Nc1cccc(-c2ccccc2)c1
- inhibition [2]: Active
- inhibition [3]: Active
- deltaT [1]: 3.4 °C
- inhibition [4]: Active
- Activity [7]: Active
- inhibition [5]: Active

Compound: O=C(O)c1ccccc1Nc1cccc(-c2ccccc2)c1
- deltaT [1]: 2.1 °C

Compound: Cc1ccc(Nc2cccc(OCc3ccccc3)c2)c(C(=O)O)c1
- inhibition [2]: Active
- inhibition [3]: inactive
- deltaT [1]: 4 °C
- inhibition [4]: inactive
- Activity [7]: Active
- inhibition [5]: Active

Compound: Cc1ccc(Nc2cc(F)ccc2C(=O)O)cc1OCc1ccccc1
- deltaT [1]: 3.8 °C

Compound: O=C(O)c1ccc(F)cc1Nc1cccc(CCc2ccccc2)c1
- deltaT [1]: 5.6 °C

Compound: O=C(O)c1ccccc1Nc1cccc(C(F)(F)F)c1
- inhibition [2]: inactive
- inhibition [3]: inactive
- inhibition [4]: inactive
- Activity [7]: inactive
- inhibition [5]: inactive
